From article PMC6467533 (Chembiochem : a European journal of chemical biology, 2018)
Values after ≈ are worked out from the molar mass of the structure shown.

Tests used:
M. aurum = conditions: cited from earlier work
[1] = system: M. smegmatis biofilm formation; conditions: cited from earlier work
Ag85C = conditions: cited from earlier work
Mtb = conditions: cited from earlier work
Mtb TPP = Mtb TPP (Mycobacterium tuberculosis, UniProt P9WFZ5); assay type: biochemical
Mlt TPP = assay type: biochemical, M. lentiflavum
Mtx TPP = Mtx TPP (Mycobacterium triplex, UniProt A0A024JUE5); assay: biochemical; parameters: species or system M. triplex
E. coli TPP = conditions: cited from earlier work

Mtx TPP, sequence (A0A024JUE5 1-354): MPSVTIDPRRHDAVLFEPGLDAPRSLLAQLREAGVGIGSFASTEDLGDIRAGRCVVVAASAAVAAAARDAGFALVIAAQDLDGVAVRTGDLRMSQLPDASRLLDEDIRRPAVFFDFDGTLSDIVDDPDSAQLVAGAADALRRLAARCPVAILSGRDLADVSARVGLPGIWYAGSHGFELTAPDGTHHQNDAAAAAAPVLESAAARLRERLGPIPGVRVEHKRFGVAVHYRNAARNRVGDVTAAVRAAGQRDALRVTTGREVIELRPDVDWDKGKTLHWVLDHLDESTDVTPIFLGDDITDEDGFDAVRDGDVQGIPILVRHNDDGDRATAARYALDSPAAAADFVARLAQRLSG
Mtb TPP, sequence (P9WFZ5 whole entry, looked up): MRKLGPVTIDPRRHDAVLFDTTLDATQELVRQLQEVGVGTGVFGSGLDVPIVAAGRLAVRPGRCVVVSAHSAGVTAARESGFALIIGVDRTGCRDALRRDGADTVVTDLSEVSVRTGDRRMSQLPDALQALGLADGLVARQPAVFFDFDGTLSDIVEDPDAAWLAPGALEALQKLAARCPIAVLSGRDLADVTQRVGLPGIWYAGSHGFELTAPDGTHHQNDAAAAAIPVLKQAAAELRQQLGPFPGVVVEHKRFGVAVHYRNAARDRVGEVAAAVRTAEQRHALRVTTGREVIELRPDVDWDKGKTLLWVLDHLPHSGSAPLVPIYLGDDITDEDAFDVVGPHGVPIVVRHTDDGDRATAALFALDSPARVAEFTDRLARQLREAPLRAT

## [N-]=[N+]=NC[C@H]1O[C@H](O[C@H]2O[C@H](CO)[C@@H](O)[C@H](O)[C@H]2O)[C@H](O)[C@@H](O)[C@@H]1O [6-azido-6-deoxy-α,α’-trehalose]
M. aurum
  MIC, growth of M. aurum: 200 mg/L
[1]
  MIC, M. smegmatis biofilm formation: 50 to 100 µM
Ag85C
  inhibition of Ag85C activity: inhibit Ag85C activity

## OC[C@H]1O[C@H](O[C@H]2O[C@H](CBr)[C@@H](O)[C@H](O)[C@H]2O)[C@H](O)[C@@H](O)[C@@H]1O [6-bromo-6-deoxy-α,α’-trehalose]
Mtb
  MIC against Mtb: 200 mg/L (≈ 494 µM)

## CC1OC(OC2OC(CO)C(O)C(O)C2O)C(O)C(O)C1O (stereo not drawn) [6-deoxy-α,α’-trehalose]
[1]
  MIC, M. smegmatis biofilm formation: 50 to 100 µM

## OCC1OC(OC2OC(CF)C(O)C(O)C2O)C(O)C(O)C1O (stereo not drawn) [6-fluoro-6-deoxy-α,α’-trehalose]
Mtb
  MIC against Mtb: 200 mg/L (≈ 581 µM)
[1]
  MIC, M. smegmatis biofilm formation: 50 to 100 µM

## OC[C@H]1O[C@H](O[C@H]2O[C@H](CC3CO3)[C@@H](O)[C@H](O)[C@H]2O)[C@H](O)[C@@H](O)[C@@H]1O (stereo partly drawn) [Compound 7, 6-deoxy-6-oxiranyl-α,α’-trehalose]
Mtb TPP
  inhibition of Mtb TPP: no inhibition
Mlt TPP
  inhibition of Mlt TPP: no inhibition
Mtx TPP
  inhibition of Mtx TPP: no inhibition

## O=P(O)(O)CC[C@H]1O[C@H](O[C@H]2O[C@H](CO)[C@@H](O)[C@H](O)[C@H]2O)[C@H](O)[C@@H](O)[C@@H]1O [TEP, 6-Deoxy-6-(methylenephosphonic acid)-α,α’-trehalose]
Mtx TPP
  IC50: 1960 ± 261 µM

## O=P(O)(O)C[C@H]1O[C@H](O[C@H]2O[C@H](CO)[C@@H](O)[C@H](O)[C@H]2O)[C@H](O)[C@@H](O)[C@@H]1O [TMP, 6-Deoxy-6-(phosphonic acid)-α,α’-trehalose]
Mtx TPP
  IC50: 288 ± 32 µM

## OCC1=C[C@@H](N[C@H]2C[C@H](CO)[C@@H](O[C@H]3O[C@@H](CO)[C@H](O)[C@@H](O)[C@@H]3O)[C@H](O)[C@H]2O)[C@H](O)[C@@H](O)[C@@H]1O [Validamycin A]
Mtb TPP
  IC50 against Mtb TPP: unexpectedly high
Mlt TPP
  IC50 against Mlt TPP: unexpectedly high
Mtx TPP
  IC50 against Mtx TPP: unexpectedly high
E. coli TPP
  inhibition of E. coli TPP: completely inhibit
